Assay results taken from patent publication US7851474B2, “Dipiperazinyl ketones and related analogues” (Neurogen Corporation, priority 2005, dated 2010).

The compounds below were run against T1, chimeric human H3 receptor (Homo sapiens, UniProt Q9Y5N1, E19D) (assay: Chimeric human H3 receptor GTP binding assay (agonist-stimulated GTP-gamma35S binding, Example 7)). Conditions: not given.
T1 construct: made in house; host or cells: Sf9 insect cells (baculovirus infection); P2 membrane preparation
T1 sequence (Q9Y5N1 with tags, fused parts or gaps E19D): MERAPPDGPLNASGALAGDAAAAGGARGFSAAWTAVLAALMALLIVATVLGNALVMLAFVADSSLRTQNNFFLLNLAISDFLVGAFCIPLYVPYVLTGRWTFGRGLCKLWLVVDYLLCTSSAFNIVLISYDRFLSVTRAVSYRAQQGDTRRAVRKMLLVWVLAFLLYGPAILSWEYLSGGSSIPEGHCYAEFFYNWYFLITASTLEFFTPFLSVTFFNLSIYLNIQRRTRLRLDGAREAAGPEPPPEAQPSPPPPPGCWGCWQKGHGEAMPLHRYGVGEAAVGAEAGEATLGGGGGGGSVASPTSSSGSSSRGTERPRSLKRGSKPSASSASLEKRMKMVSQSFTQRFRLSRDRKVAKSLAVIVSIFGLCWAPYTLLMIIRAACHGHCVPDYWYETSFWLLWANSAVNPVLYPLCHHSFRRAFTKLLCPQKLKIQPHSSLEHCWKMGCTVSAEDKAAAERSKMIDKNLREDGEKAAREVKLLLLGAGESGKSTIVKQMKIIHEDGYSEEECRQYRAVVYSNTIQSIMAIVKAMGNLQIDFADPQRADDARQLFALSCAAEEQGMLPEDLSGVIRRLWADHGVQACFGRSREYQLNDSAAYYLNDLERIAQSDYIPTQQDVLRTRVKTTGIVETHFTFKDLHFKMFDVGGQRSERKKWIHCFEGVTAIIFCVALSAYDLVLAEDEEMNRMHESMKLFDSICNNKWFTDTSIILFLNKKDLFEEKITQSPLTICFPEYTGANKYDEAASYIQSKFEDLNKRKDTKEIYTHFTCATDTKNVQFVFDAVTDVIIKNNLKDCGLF
Assay type: biochemical
Method in brief: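 Sf9 membranes co-expressing the chimeric receptor and heterotrimeric G-protein subunits, 35 μg protein per tube, in pH 7.4 Tris buffer with 10 μM GDP. Test compounds at 10^−10 to 10^−6 M with 1 μM histamine, 60 min at room temperature. Filter-bound GTP-gamma^35S read by scintillation; IC50 from non-linear regression of dose-response curves.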

| SMILES | Ki |
| --- | --- |
| C=CCN1CCN(C(=O)CN2CCN(c3ccc(C(F)(F)F)cc3)CC2)CC1 [Compound 487, 1-allyl-4-({4-[4-(trifluoromethyl)phenyl]piperazin-1-yl}acetyl)piperazine] | < 1000 nM |
| CCCCN1CCN(C(=O)CN2CCN(c3ccc(C(F)(F)F)cc3)CC2)CC1 [Compound 496, 1-butyl-4-({4-[4-(trifluoromethyl)phenyl]piperazin-1-yl}acetyl)piperazine] | < 1000 nM |
| O=C(CN1CCN(c2cccc(C(F)(F)F)c2)CC1)N1CCN(C2CCC2)CC1 [Compound 590, 1-cyclobutyl-4-({4-[3-(trifluoromethyl)phenyl]piperazin-1-yl}acetyl)piperazine] | < 1000 nM |

Same assay, conditions: "*" in Ki of Table II; assay of Example 7; read-out: Ki

| SMILES | Ki |
| --- | --- |
| O=C(N1CCN(C2CCC2)CC1)N1CCC2(CC1)C(=O)N(Cc1ccccc1)c1ccccc12 [Compound 488, 1-benzyl-1′-[(4-cyclobutylpiperazin-1-yl)carbonyl]spiro[indole-3,4′-piperidin]-2(1H)-one] | < 1000 nM |
| O=C(N1CCN(C2CCCC2)CC1)N1CCC2(CC1)C(=O)N(Cc1ccccc1)c1ccccc12 [Compound 489, 1-benzyl-1′-[(4-cyclopentylpiperazin-1-yl)carbonyl]spiro[indole-3,4′-piperidin]-2(1H)-one] | < 1000 nM |
| O=C(CN1CCC2(CC1)CN(Cc1ccccc1)c1cccnc12)N1CCN(C2CCC2)CC1 [Compound 490, 1′-benzyl-1-[2-(4-cyclobutylpiperazin-1-yl)-2-oxoethyl]-1′,2′-dihydrospiro[piperidine-4,3′-pyrrolo[3,2-b]pyridine]] | < 1000 nM |
| O=C(CN1CCC2(CC1)C(=O)N(Cc1ccccc1)c1cccnc12)N1CCN(C2CCC2)CC1 [Compound 492, 1′-benzyl-1-[2-(4-cyclobutylpiperazin-1-yl)-2-oxoethyl]spiro[piperidine-4,3′-pyrrolo[3,2-b]pyridin]-2′(1′H)-one] | < 1000 nM |
| O=C(CN1CCN(c2cccc(-c3ccccc3)c2)CC1)N1CCN(C2CCC2)CC1 [Compound 493, 1-biphenyl-3-yl-4-[2-(4-cyclobutylpiperazin-1-yl)-2-oxoethyl]piperazine] | < 1000 nM |
| O=C(CN1CCN(c2ccc(-c3ccccc3)cc2)CC1)N1CCN(C2CCC2)CC1 [Compound 494, 1-biphenyl-4-yl-4-[2-(4-cyclobutylpiperazin-1-yl)-2-oxoethyl]piperazine] | < 1000 nM |
| O=C(Cc1c(Cl)ccc(Cl)c1Cl)N1CCN(CC(=O)N2CCN(C3CCC3)CC2)CC1 [Compound 501, 1-cyclobutyl-4-({4-[(2,3,6-trichlorophenyl)acetyl]piperazin-1-yl}acetyl)piperazine] | < 1000 nM |
| COc1ccc(CC(=O)N2CCN(CC(=O)N3CCN(C4CCC4)CC3)CC2)c(OC)c1 [Compound 507, 1-cyclobutyl-4-({4-[(2,4-dimethoxyphenyl)acetyl]piperazin-1-yl}acetyl)piperazine] | < 1000 nM |
| COc1ccc(OC)c(CC(=O)N2CCN(CC(=O)N3CCN(C4CCC4)CC3)CC2)c1 [Compound 509, 1-cyclobutyl-4-({4-[(2,5-dimethoxyphenyl)acetyl]piperazin-1-yl}acetyl)piperazine] | < 1000 nM |
| O=C(Cc1c(Cl)cccc1Cl)N1CCN(CC(=O)N2CCN(C3CCC3)CC2)CC1 [Compound 511, 1-cyclobutyl-4-({4-[(2,6-dichlorophenyl)acetyl]piperazin-1-yl}acetyl)piperazine] | < 1000 nM |
| COc1ccccc1CC(=O)N1CCN(CC(=O)N2CCN(C3CCC3)CC2)CC1 [Compound 536, 1-cyclobutyl-4-({4-[(2-methoxyphenyl)acetyl]piperazin-1-yl}acetyl)piperazine] | < 1000 nM |
| O=C(Cc1ccccc1Oc1ccccc1)N1CCN(CC(=O)N2CCN(C3CCC3)CC2)CC1 [Compound 541, 1-cyclobutyl-4-({4-[(2-phenoxyphenyl)acetyl]piperazin-1-yl}acetyl)piperazine] | < 1000 nM |

More lines, now with the values ahead:

| Ki | SMILES |
| --- | --- |
| < 1000 nM | Cc1cccc(OC(C)C(=O)N2CCN(CC(=O)N3CCN(C4CCC4)CC3)CC2)c1C (centres unmarked) [Compound 571, 1-cyclobutyl-4-({4-[2-(2,3-dimethylphenoxy)propanoyl]piperazin-1-yl}acetyl)piperazine] |
| < 1000 nM | Cc1ccccc1OC(C)C(=O)N1CCN(CC(=O)N2CCN(C3CCC3)CC2)CC1 (centres unmarked) [Compound 573, 1-cyclobutyl-4-({4-[2-(2-methylphenoxy)propanoyl]piperazin-1-yl}acetyl)piperazine] |

Same assay, conditions: Table II, "*" in Ki; assay of Example 7; read-out: Ki

| Ki | SMILES |
| --- | --- |
| < 1000 nM | O=C(CN1CCN(c2ccc(-c3ccccc3C(F)(F)F)cc2)CC1)N1CCN(C2CCC2)CC1 [Compound 580, 1-cyclobutyl-4-({4-[2′-(trifluoromethyl)biphenyl-4-yl]piperazin-1-yl}acetyl)piperazine] |
| < 1000 nM | CS(=O)(=O)c1ccc(N2CCN(CC(=O)N3CCN(C4CCC4)CC3)CC2)c(F)c1 [Compound 581, 1-cyclobutyl-4-({4-[2-fluoro-4-(methylsulfonyl)phenyl]piperazin-1-yl}acetyl)piperazine] |
| < 1000 nM | O=C(CN1CCN(c2cccc(C(=O)N3CC=CCC3)c2)CC1)N1CCN(C2CCC2)CC1 [Compound 583] |
| < 1000 nM | CSc1cccc(-c2ccc(N3CCN(CC(=O)N4CCN(C5CCC5)CC4)CC3)cc2)c1 [Compound 584, 1-cyclobutyl-4-({4-[3′-(methylthio)biphenyl-4-yl]piperazin-1-yl}acetyl)piperazine] |
| < 1000 nM | O=C(CN1CCN(c2cccc(C(=O)N3CCCCC3)c2)CC1)N1CCN(C2CCC2)CC1 [Compound 585, 1-cyclobutyl-4-({4-[3-(piperidin-1-ylcarbonyl)phenyl]piperazin-1-yl}acetyl)piperazine] |
| < 1000 nM | O=C(CN1CCN(c2cccc(C(=O)N3CCCC3)c2)CC1)N1CCN(C2CCC2)CC1 [Compound 586, 1-cyclobutyl-4-({4-[3-(pyrrolidin-1-ylcarbonyl)phenyl]piperazin-1-yl}acetyl)piperazine] |
| < 1000 nM | O=C(CN1CCN(c2ccc(-c3cccc(OC(F)(F)F)c3)cc2)CC1)N1CCN(C2CCC2)CC1 [Compound 587, 1-cyclobutyl-4-({4-[3′-(trifluoromethoxy)biphenyl-4-yl]piperazin-1-yl}acetyl)piperazine] |
| < 1000 nM | O=C(CN1CCN(c2ccc(-c3cccc(C(F)(F)F)c3)cc2)CC1)N1CCN(C2CCC2)CC1 [Compound 589, 1-cyclobutyl-4-({4-[3′-(trifluoromethyl)biphenyl-4-yl]piperazin-1-yl}acetyl)piperazine] |
| < 1000 nM | O=C(CN1CCN(c2ccc(-c3ccc4c(c3)OCCO4)cc2)CC1)N1CCN(C2CCC2)CC1 [Compound 592, 1-cyclobutyl-4-({4-[4-(2,3-dihydro-1,4-benzodioxin-6-yl)phenyl]piperazin-1-yl}acetyl)piperazine] |
| < 1000 nM | O=C(CN1CCN(c2ccc(C(=O)N3CC=CCC3)cc2)CC1)N1CCN(C2CCC2)CC1 [Compound 593, 1-cyclobutyl-4-({4-[4-(3,6-dihydropyridin-1(2H)-ylcarbonyl)phenyl]piperazin-1-yl}acetyl)piperazine] |
| < 1000 nM | Cc1noc(-c2ccc(N3CCN(CC(=O)N4CCN(C5CCC5)CC4)CC3)cc2)n1 [Compound 594, 1-cyclobutyl-4-({4-[4-(3-methyl-1,2,4-oxadiazol-5-yl)phenyl]piperazin-1-yl}acetyl)piperazine] |
| < 1000 nM | Cc1nc(-c2ccc(N3CCN(CC(=O)N4CCN(C5CCC5)CC4)CC3)cc2)no1 [Compound 595, 1-cyclobutyl-4-({4-[4-(5-methyl-1,2,4-oxadiazol-3-yl)phenyl]piperazin-1-yl}acetyl)piperazine] |
